Patent US20220041606A1, “POSITIVE ALLOSTERIC MODULATORS OF THE MUSCARINIC ACETYLCHOLINE RECEPTOR M1” (Vanderbilt University, priority 2020, published 2022)

Columns and labels:
human mAChR M1 [1] = molecular target: T1, human mAChR M1 (Homo sapiens, UniProt P11229); assay: mAChR M1 cell-based functional assay (calcium mobilization), PAM activity: increase in the EC20 acetylcholine response; conditions: CHO-K1 cells expressing hM1; potentiation of EC20 acetylcholine response
T1 construct: host or cells: CHO-K1 cells (ATCC), stably transfected using Lipofectamine2000
T1 sequence (P11229 1-460): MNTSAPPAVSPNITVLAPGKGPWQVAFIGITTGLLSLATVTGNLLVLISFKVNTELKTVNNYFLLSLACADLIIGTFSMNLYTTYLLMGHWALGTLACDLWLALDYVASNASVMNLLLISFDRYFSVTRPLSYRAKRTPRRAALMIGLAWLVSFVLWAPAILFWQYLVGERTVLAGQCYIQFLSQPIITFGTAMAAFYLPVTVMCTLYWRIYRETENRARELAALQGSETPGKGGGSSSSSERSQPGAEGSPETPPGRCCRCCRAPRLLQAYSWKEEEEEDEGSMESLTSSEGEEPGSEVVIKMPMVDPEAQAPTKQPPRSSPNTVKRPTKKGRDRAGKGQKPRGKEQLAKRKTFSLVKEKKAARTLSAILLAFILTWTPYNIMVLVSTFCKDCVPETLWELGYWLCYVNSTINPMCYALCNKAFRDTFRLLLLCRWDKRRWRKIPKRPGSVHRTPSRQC
Description: (§1) Chinese hamster ovary (CHO-K1) cells stably expressing rat (r)M1 were purchased from the American Type Culture Collection and cultured according to their indicated protocol. CHO cells stably expressing human (h)M2, hM3, and hM5 were described previously (Levey, et al., 1991); hM1 and hM4 cDNAs were purchased from Missouri S&T cDNA Resource; rM4 cDNA was provided by T. L. Bonner (National Institutes of Health, Bethesda, MID). rM2 and rM3 were cloned from a rat brain cDNA library and sequence verified. hM1, rM2, rM3, hM4, and rM4 cDNAs were used to stably transfect CHO-K1 cells purchased from the American Type Culture Collection using Lipofectamine2000. To make stable rM2, hM2, rM3, hM4, and rM4 cell lines for use in calcium mobilization assays, these cells also were stably transfected with a chimeric G-protein (Gqi5) (provided by B. R. Conklin, University of California, San Francisco) using Lipofectamine 2000. rM1, hM1, rM3, hM3, rM5, and hM5 cells were grown in Ham's F-12 medium containing 10% heat-inactivated fetal bovine serum (FBS), 20 mM HEPES, and 50 μg/mL G418 sulfate. rM2-Gq15, hM2-Gqi5, and hM4-Gqi5 cells were grown in the same medium also containing 500 μg/mL Hygromycin B. Stable rM4-Gqi5 cells were grown in DMEM containing 10% heat-inactivated FBS, 20 mM HEPES, 400 μg/mL G418 sulfate, and 500 μg/mL Hygromycin B.
(§2) For high throughput measurement of agonist-evoked increases in intracellular calcium, CHO-K1 cells stably expressing muscarinic receptors were plated in growth medium lacking G418 and hygromycin at 15,000 cells/20 μL/well in Greiner 384-well black-walled, tissue culture (TC)-treated, clear-bottom plates (VWR). Cells were incubated overnight at 37° C. and 5% CO2. The next day, cells were washed using an ELX 405 (BioTek) with four washes (80 μL) of assay buffer then aspirated to 20 μL. Next, 20 μL of 16 μM Fluo-4/acetoxymethyl ester (Invitrogen, Carlsbad, Calif.) prepared as a 2.3 mM stock in DMSO and mixed in a 1:1 ratio with 10% (w/v) Pluronic F-127 and diluted in assay buffer was added to the wells and the cell plates were incubated for 50 min at 37° C. and 5% CO2. Dye was removed by washing with the ELX 405 (four 80 μL washes of assay buffer) then aspirated to 20 μL. Compound master plates were formatted in an 11 point CRC format (1:3 dilutions) in 100% DMSO with a starting concentration of 10 mM using the BRAVO liquid handler (Agilent). Test compound CRCs were then transferred to daughter plates (240 nL) using the Echo acoustic plate reformatter (Labcyte, Sunnyvale, Calif.) and then diluted into assay buffer (40 μL) to a 2× stock using a Thermo Fisher Combi (Thermo Fisher Scientific, Waltham, Mass.).
(§3) Calcium flux was measured using the Functional Drug Screening System (FDSS) 6000 (Hamamatsu Corporation, Tokyo, Japan) as an increase in the fluorescent static ratio. Compounds were applied to cells (20 μL, 2×) using the automated system of the FDSS 6000 at 4 s into the 300 s protocol and the data were collected at 1 Hz. At 144 s into the 300s protocol, 10 μL of an EC20 concentration of the muscarinic receptor agonist acetylcholine was added (5×), followed by the addition of 12 μL an EC80 concentration of acetylcholine at the 230 s time point (5×). Agonist activity was analyzed as a concentration-dependent increase in calcium mobilization upon compound addition. Emax values for agonist activity are expressed relative to the maximum for acetylcholine. Positive allosteric modulator activity was analyzed as a concentration-dependent increase in the EC20 acetylcholine response. Antagonist activity was analyzed as a concentration-dependent decrease in the EC80 acetylcholine response. Concentration-response curves were generated using a four-parameter logistical equation in XLfit curve fitting software (IDBS, Bridgewater, N.J.) for Excel (Microsoft, Redmond, Wash.) or Prism (GraphPad Software, Inc., San Diego, Calif.). […]

human mAChR M1 [2] = molecular target: T1, human mAChR M1; assay: mAChR M1 cell-based functional assay (calcium mobilization), agonist activity upon compound addition; conditions: CHO-K1 cells expressing hM1; for EC50: compound alone, before acetylcholine addition; for Emax: relative to the maximum for acetylcholine
Description: as §1, §2, §3

SMILES: Cn1ccc(-c2ccc(Cn3cc(C(=O)N[C@H]4CCOC[C@@H]4O)c4ncccc4c3=O)c(F)c2)n1 [Compound A1, 6-(2-Fluoro-4-(1-methyl-1H-pyrazol-3-yl)benzyl)-N-((3R,4S)-3-hydroxytetrahydro-2H-pyran-4-yl)-5-oxo-5,6-dihydro-1,6-naphthyridine-8-carboxamide]
- EC50 (human mAChR M1 [1]): 0.48 µM
- Emax (human mAChR M1 [1]): 90%
- EC50 (human mAChR M1 [2]): 7.9 µM
- Emax (human mAChR M1 [2]): 20%

SMILES: O=C(N[C@H]1CCCC[C@@H]1O)c1cn(Cc2ccc(-n3cccn3)cc2)c(=O)c2nccnc12 [Compound A53, 6-(4-(1H-pyrazol-1-yl)benzyl)-N-((1S,2S)-2-hydroxycyclohexyl)-5-oxo-5,6-dihydropyrido[3,4-b]pyrazine-8-carboxamide]
- EC50 (human mAChR M1 [1]): 9.64 µM
- Emax (human mAChR M1 [1]): 48%
- EC50 (human mAChR M1 [2]): > 10 µM
- Emax (human mAChR M1 [2]): < 5%

SMILES: Cc1cc(C)cc(-c2cc(F)c(Cn3cc(C(=O)N[C@H]4CCOC[C@@H]4O)c4ncccc4c3=O)c(F)c2)c1 [Compound A32, 6-((3,5-difluoro-3′,5′-dimethyl-[1,1′-biphenyl]-4-yl)methyl)-N-((3R,4S)-3-hydroxytetrahydro-2H-pyran-4-yl)-5-oxo-5,6-dihydro-1,6-naphthyridine-8-carboxamide]
- EC50 (human mAChR M1 [1]): 2.24 µM
- Emax (human mAChR M1 [1]): 70%
- EC50 (human mAChR M1 [2]): > 10 µM
- Emax (human mAChR M1 [2]): < 5%

SMILES: Cn1ccc(-c2ccc(Cn3cc(C(=O)NC4CCOC(C)(C)C4)c4occc4c3=O)c(F)c2)n1 (stereo not drawn) [Compound D11, N-(2,2-dimethyltetrahydro-2H-pyran-4-yl)-5-(2-fluoro-4-(1-methyl-1H-pyrazol-3-yl)benzyl)-4-oxo-4,5-dihydrofuro[3,2-c]pyridine-7-carboxamide]
- EC50 (human mAChR M1 [1]): > 10 µM
- Emax (human mAChR M1 [1]): 24%
- EC50 (human mAChR M1 [2]): > 10 µM
- Emax (human mAChR M1 [2]): < 5%

SMILES: Cn1ccc(-c2ccc(Cn3cc(C(=O)N[C@H]4CCCCC[C@@H]4O)c4nccnc4c3=O)c(F)c2)n1 [Compound A65, 6-(2-fluoro-4-(1-methyl-1H-pyrazol-3-yl)benzyl)-N-((1S,2S)-2-hydroxycycloheptyl)-5-oxo-5,6-dihydropyrido[3,4-b]pyrazine-8-carboxamide]
- EC50 (human mAChR M1 [1]): 5.25 µM
- Emax (human mAChR M1 [1]): 63%
- EC50 (human mAChR M1 [2]): > 10 µM
- Emax (human mAChR M1 [2]): 6%

SMILES: Cc1cn2c(=O)n(Cc3c(F)cc(-c4cccc5nn(C)cc45)cc3F)cc(C(=O)N[C@H]3CCOC[C@@H]3O)c2n1 [Compound B29, 6-(2,6-difluoro-4-(2-methyl-2H-indazol-4-yl)benzyl)-N-((3R,4S)-3-hydroxytetrahydro-2H-pyran-4-yl)-2-methyl-5-oxo-5,6-dihydroimidazo[1,2-c]pyrimidine-8-carboxamide]
- EC50 (human mAChR M1 [1]): 4.31 µM
- Emax (human mAChR M1 [1]): 40%
- EC50 (human mAChR M1 [2]): > 10 µM
- Emax (human mAChR M1 [2]): < 5%

SMILES: Cn1nccc1-c1cc(F)c(Cn2cc(C(=O)N[C@H]3CCOC[C@@H]3O)c3nccn3c2=O)c(F)c1 [Compound B36, 6-(2,6-difluoro-4-(1-methyl-1H-pyrazol-5-yl)benzyl)-N-((3R,4S)-3-hydroxytetrahydro-2H-pyran-4-yl)-5-oxo-5,6-dihydroimidazo[1,2-c]pyrimidine-8-carboxamide]
- EC50 (human mAChR M1 [1]): 1.25 µM
- Emax (human mAChR M1 [1]): 78%
- EC50 (human mAChR M1 [2]): > 10 µM
- Emax (human mAChR M1 [2]): < 5%

SMILES: Cn1cc(-c2ccc(Cn3cc(C(=O)NC4CC5(COC5)C4)c4occc4c3=O)c(F)c2)cn1 [Compound D17, 5-(2-fluoro-4-(1-methyl-1H-pyrazol-4-yl)benzyl)-4-oxo-N-(2-oxaspiro[3.3]heptan-6-yl)-4,5-dihydrofuro[3,2-c]pyridine-7-carboxamide]
- EC50 (human mAChR M1 [1]): > 10 µM
- Emax (human mAChR M1 [1]): 40%
- EC50 (human mAChR M1 [2]): > 10 µM
- Emax (human mAChR M1 [2]): < 5%

SMILES: Cn1cc(-c2ccc(Cn3cc(C(=O)N[C@H]4CCCC[C@@H]4O)c4ncccc4c3=O)cc2)cn1 [Compound A86, N-((1S,2S)-2-hydroxycyclohexyl)-6-(4-(1-methyl-1H-pyrazol-4-yl)benzyl)-5-oxo-5,6-dihydro-1,6-naphthyridine-8-carboxamide]
- EC50 (human mAChR M1 [1]): 0.37 µM
- Emax (human mAChR M1 [1]): 52%
- EC50 (human mAChR M1 [2]): > 10 µM
- Emax (human mAChR M1 [2]): < 5%

SMILES: CC(C)[C@@H](CO)NC(=O)c1cn(Cc2c(F)cc(-c3cccc4nn(C)cc34)cc2F)c(=O)c2nccnc12 [Compound A75, (S)-6-(2,6-difluoro-4-(2-methyl-2H-indazol-4-yl)benzyl)-N-(1-hydroxy-3-methylbutan-2-yl)-5-oxo-5,6-dihydropyrido[3,4-b]pyrazine-8-carboxamide]
- EC50 (human mAChR M1 [1]): 3.54 µM
- Emax (human mAChR M1 [1]): 56%
- EC50 (human mAChR M1 [2]): > 10 µM
- Emax (human mAChR M1 [2]): < 5%

SMILES: Cn1cc(-c2ccc(Cn3cc(C(=O)N[C@H]4CCC[C@@H]4O)c4ncccc4c3=O)c(F)c2)cn1 [Compound A8, 6-(2-fluoro-4-(1-methyl-1H-pyrazol-4-yl)benzyl)-N-((1S,2S)-2-hydroxycyclopentyl)-5-oxo-5,6-dihydro-1,6-naphthyridine-8-carboxamide]
- EC50 (human mAChR M1 [1]): 1.29 µM
- Emax (human mAChR M1 [1]): 83%
- EC50 (human mAChR M1 [2]): > 10 µM
- Emax (human mAChR M1 [2]): < 5%

SMILES: Cn1cc(-c2ccc(Cn3cc(C(=O)N[C@H]4CCCCC[C@@H]4O)c4ncccc4c3=O)c(F)c2)cn1 [Compound A24, 6-(2-fluoro-4-(1-methyl-1H-pyrazol-4-yl)benzyl)-N-((1S,2S)-2-hydroxycycloheptyl)-5-oxo-5,6-dihydro-1,6-naphthyridine-8-carboxamide]
- EC50 (human mAChR M1 [1]): 0.35 µM
- Emax (human mAChR M1 [1]): 69%
- EC50 (human mAChR M1 [2]): 6.12 µM
- Emax (human mAChR M1 [2]): 16%

SMILES: Cn1cc(-c2ccc(Cn3cc(C(=O)NC4CCOCC4)c4ncccc4c3=O)c(F)c2)cn1 [Compound A10, 6-(2-fluoro-4-(1-methyl-1H-pyrazol-4-yl)benzyl)-5-oxo-N-(tetrahydro-2H-pyran-4-yl)-5,6-dihydro-1,6-naphthyridine-8-carboxamide]
- EC50 (human mAChR M1 [1]): ≥ 10 µM
- Emax (human mAChR M1 [1]): 59%
- EC50 (human mAChR M1 [2]): > 10 µM
- Emax (human mAChR M1 [2]): < 5%

SMILES: O=C(N[C@H]1CCC[C@@H]1O)c1cn(Cc2ccc(-n3cccn3)cc2)c(=O)c2ccoc12 [Compound D4, 5-(4-(1H-pyrazol-1-yl)benzyl)-N-((1S,2S)-2-hydroxycyclopentyl)-4-oxo-4,5-dihydrofuro[3,2-c]pyridine-7-carboxamide]
- EC50 (human mAChR M1 [1]): > 10 µM
- Emax (human mAChR M1 [1]): 34%
- EC50 (human mAChR M1 [2]): > 10 µM
- Emax (human mAChR M1 [2]): < 5%

SMILES: Cn1cc2c(-c3cc(F)c(Cn4cc(C(=O)NC5(CO)CCOC5)c5nccnc5c4=O)c(F)c3)cccc2n1 (stereo not drawn) [Compound A72, 6-(2,6-difluoro-4-(2-methyl-2H-indazol-4-yl)benzyl)-N-(3-(hydroxymethyl)tetrahydrofuran-3-yl)-5-oxo-5,6-dihydropyrido[3,4-b]pyrazine-8-carboxamide]
- EC50 (human mAChR M1 [1]): ≥ 10 µM
- Emax (human mAChR M1 [1]): 32%
- EC50 (human mAChR M1 [2]): > 10 µM
- Emax (human mAChR M1 [2]): < 5%
